Assay results published in ChEMBL document CHEMBL1158520, “Aryl- and heteroaryl-substituted aminobenzo[a]quinolizines as dipeptidyl peptidase IV inhibitors” (Bioorg Med Chem Lett, 2010).

What was measured:
[1] = Distribution coefficient, log D at pH 7.4; type: physicochemical; settings: octanol/water
[2] = biological target: Dipeptidyl peptidase 4 (Homo sapiens, UniProt P27487); assay: Inhibition of DPP4
[3] = Ratio of drug level in brain to plasma of Wistar rat; type: ADME
[4] = Half life in Wistar rat at 1 mg/kg, iv; type: ADME, organism-based; set-up: dose 1 mg/kg, route intravenous; settings: in vivo
[5] = Volume of distribution at steady state in Wistar rat at 1 mg/kg, iv; type: ADME, organism-based; set-up: dose 1 mg/kg, route intravenous; settings: in vivo, read-out: Vdss
[6] = Clearance in Wistar rat at 1 mg/kg, iv; type: ADME, organism-based; set-up: dose 1 mg/kg, route intravenous; settings: in vivo
[7] = Oral bioavailability in Wistar rat at 3 mg/kg; type: ADME, organism-based; settings: in vivo
[8] = test system: Phospholipidosis; assay: Minimal effective concentration for in vitro drug-induced phospholipidosis in fibroblasts; type: ADME, cell-based; settings: fibroblast
[9] = test system: Rattus norvegicus; assay: Reduction of blood glucose level in Zucker fatty (fa/fa) rat at 0.3 mg/kg, po administered 2 hrs before glucose challenge measured after 40 mins glucose challenge by oral glucose tolerance test; type: functional; set-up: scale not given: the % may be the effect or the level left
[10] = Mutagenic activity in Salmonella Typhimurium; type: toxicity; settings: salmonella enterica subsp. enterica serovar typhimurium
[11] = test system: Rattus norvegicus; assay: Reduction of blood glucose level in po dosed Zucker fatty (fa/fa) rat administered 2 hrs before glucose challenge measured after 40 mins glucose challenge by oral glucose tolerance test; type: functional, organism-based

Chain of Dipeptidyl peptidase 4 (P27487 whole entry): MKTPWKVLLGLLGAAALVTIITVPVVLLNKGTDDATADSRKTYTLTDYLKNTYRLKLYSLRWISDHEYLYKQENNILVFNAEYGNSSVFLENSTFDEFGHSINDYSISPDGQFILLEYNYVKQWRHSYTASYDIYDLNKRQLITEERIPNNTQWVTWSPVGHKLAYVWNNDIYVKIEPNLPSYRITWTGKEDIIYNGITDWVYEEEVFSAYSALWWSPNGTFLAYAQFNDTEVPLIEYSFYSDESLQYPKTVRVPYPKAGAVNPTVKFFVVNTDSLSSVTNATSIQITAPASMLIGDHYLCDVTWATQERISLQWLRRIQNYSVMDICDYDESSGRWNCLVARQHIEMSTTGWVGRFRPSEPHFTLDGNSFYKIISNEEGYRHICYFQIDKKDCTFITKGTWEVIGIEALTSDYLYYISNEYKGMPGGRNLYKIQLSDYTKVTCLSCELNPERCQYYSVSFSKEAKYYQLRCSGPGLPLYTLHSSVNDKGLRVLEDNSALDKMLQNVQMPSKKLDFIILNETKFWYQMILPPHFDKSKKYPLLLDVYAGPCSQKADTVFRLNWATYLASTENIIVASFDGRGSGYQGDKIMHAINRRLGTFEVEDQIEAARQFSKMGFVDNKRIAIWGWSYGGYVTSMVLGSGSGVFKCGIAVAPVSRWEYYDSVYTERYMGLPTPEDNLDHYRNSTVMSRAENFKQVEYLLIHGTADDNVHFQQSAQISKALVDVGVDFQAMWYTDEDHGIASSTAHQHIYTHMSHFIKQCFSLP

SMILES	logD [1]	IC50 [2]	also measured
COc1cc2c(cc1OC)[C@@H]1CC(N)[C@@H](c3cccc(CF)c3)CN1CC2 (mixture of isomers)	1.6		
COc1cc2c(cc1OC)[C@H]1C[C@@H](N)[C@H](c3cc(C)ccn3)CN1CC2		53000 nM	
COc1cc2c(cc1OC)[C@@H]1CC(N)[C@@H](c3cccc(C)c3)CN1CC2 (mixture of isomers)	1.3		Kp [3]: 5.8; half-life [4]: 6.9 h; Vd [5]: 42 L/kg; clearance [6]: 87 mL/min/kg; bioavailability [7]: 56%; Phospholipidosis_MEC [8]: 2.5 µM; Activity [9]: 41%
COc1cc2c(cc1OC)[C@@H]1CC(N)[C@@H](c3cc(CF)ccn3)CN1CC2 (mixture of isomers)	0.1	1.2 nM	Activity [10]: Toxic
COc1cc2c(cc1OC)[C@@H]1CC(N)[C@@H](c3cc(C)ccc3C)CN1CC2 (mixture of isomers)	1.6	1.7 nM	
COc1cc2c(cc1OC)[C@@H]1CC(N)[C@@H](c3cccc(C(C)C)c3)CN1CC2 (mixture of isomers)	2	5500 nM	
COc1cc2c(cc1OC)[C@@H]1CC(N)[C@@H](c3cccc(C4CC4)c3)CN1CC2 (mixture of isomers)	1.8	38 nM	
CCc1cccc([C@H]2CN3CCc4cc(OC)c(OC)cc4[C@@H]3CC2N)c1 (mixture of isomers)	1.7	61 nM	
COc1cc2c(cc1OC)[C@@H]1CC(N)[C@@H](c3cccc(Cl)c3)CN1CC2 (mixture of isomers)	1.7		
COc1cc2c(cc1OC)[C@@H]1C[C@H](N)[C@@H](c3cc(C)ccn3)CN1CC2		11 nM	Kp [3]: 0.7; half-life [4]: 1.4 h; Vd [5]: 12 L/kg; clearance [6]: 118 mL/min/kg; bioavailability [7]: 50%; Activity [11]: Dose-dependent effect
COc1cc2c(cc1OC)[C@@H]1CC(N)[C@@H](c3cc(C)ccn3)CN1CC2 (mixture of isomers)	0.3	19 nM	Phospholipidosis_MEC [8]: 15 µM
COc1cc2c(cc1OC)[C@@H]1CC(N)[C@@H](c3ccccc3)CN1CC2 (mixture of isomers)	0.8		Phospholipidosis_MEC [8]: 5 µM
